From patent US9302999B2, “Substituted triazoles as herbicides” (E. I. DU PONT DE NEMOURS AND COMPANY, priority 2012, dated 2016)

Columns and labels:
Type in all cases: in vivo
[1] = tested on: ducksalad (Heteranthera limosa); experiment: Test B flooded paddy: ducksalad; conditions: Flood, applied to paddy water at 2-leaf stage, visually evaluated after 13 to 15 days
Summary of the method: (§1)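 Paddy-water application: seedlings at 2-leaf stage, flood depth 3 cm maintained for the test duration. Evaluation after 13–15 days in the greenhouse by eye relative to controls; 0–100 scale.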

[2] = tested on: morningglory (Ipomoea spp.); experiment: Test A pre-/postemergence: morningglory
Summary of the method: (§2)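 Injury was scored visually on a 0 (no effect) to 100 (complete control) scale versus untreated controls roughly ten days after treatment in the greenhouse. Compounds, formulated in surfactant-containing non-phytotoxic solvent, went on as soil-directed preemergence spray or postemergence to one- to two-leaf plants 2–10 cm tall.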

[3] = tested on: pigweed (Amaranthus retroflexus); experiment: Test A pre-/postemergence: pigweed
Summary of the method: as §2

[4] = tested on: wheat (Triticum aestivum); experiment: Test A pre-/postemergence: wheat
Summary of the method: as §2

[5] = tested on: barnyardgrass (Echinochloa crus-galli); experiment: Test A pre-/postemergence: barnyardgrass
Summary of the method: as §2

[6] = tested on: velvetleaf (Abutilon theophrasti); experiment: Test A pre-/postemergence: velvetleaf
Summary of the method: as §2

[7] = tested on: foxtail, giant (giant foxtail, Setaria faberii); experiment: Test A pre-/postemergence: foxtail, giant
Summary of the method: as §2

[8] = tested on: barnyardgrass (Echinochloa crus-galli); experiment: Test B flooded paddy: barnyardgrass; conditions: Flood, applied to paddy water at 2-leaf stage, visually evaluated after 13 to 15 days
Summary of the method: as §1

[9] = tested on: sedge, umbrella (small-flower umbrella sedge Cyperus difformis); experiment: Test B flooded paddy: sedge, umbrella; conditions: Flood, applied to paddy water at 2-leaf stage, visually evaluated after 13 to 15 days
Summary of the method: as §1

corn (Zea mays) = experiment: Test A pre-/postemergence: corn
Summary of the method: as §2

rice (Oryza sativa) = experiment: Test B flooded paddy: rice; conditions: Flood, applied to paddy water at 2-leaf stage, visually evaluated after 13 to 15 days
Summary of the method: as §1

[10] = tested on: crabgrass, large (large crabgrass, Digitaria sanguinalis); experiment: Test A pre-/postemergence: crabgrass, large
Summary of the method: as §2

[11] = Postemergence, 125 g ai/ha, 0 to 100 scale, 0 is no effect, 100 is complete control
[12] = Postemergence, 500 g ai/ha, 0 to 100 scale, 0 is no effect, 100 is complete control
[13] = Preemergence, 125 g ai/ha, 0 to 100 scale where 0 is no effect and 100 is complete control
[14] = Preemergence, 500 g ai/ha, 0 to 100 scale (0 no effect, 100 complete control)

Row | SMILES | Plant response rating, Morningglory [2, 11] | Morningglory plant response rating [2, 12] | Plant response rating, Morningglory [2, 13] | Plant response rating, Morningglory [2, 14] | Plant response rating, Pigweed [3, 11] | Pigweed plant response rating [3, 12] | Plant response rating, Pigweed [3, 13] | Plant response rating, Pigweed [3, 14] | Plant response rating, Wheat [4, 11] | Wheat plant response rating [4, 12] | Plant response rating, Wheat [4, 13] | Plant response rating, Wheat [4, 14] | Plant response rating, Barnyardgrass [5, 11] | Barnyardgrass plant response rating [5, 12] | Plant response rating, Barnyardgrass [5, 13] | Plant response rating, Barnyardgrass [5, 14] | Plant response rating, Velvetleaf [6, 11] | Velvetleaf plant response rating [6, 12] | Plant response rating, Velvetleaf [6, 13] | Plant response rating, Velvetleaf [6, 14] | further results
1 | CCc1nn(-c2ccc(F)c(C(F)(F)F)c2)nc1Oc1ccnc(C(F)(F)F)c1 [Compound 180] | 100 | 100 | 40 | 70 | 100 | 100 | 100 | 100 | 30 | 40 | 20 | 40 | 50 | 80 | 60 | 80 | 70 | 100 | 50 | 60 | Plant response rating, Ducksalad (0 to 100 scale, 0 is no effect, 100 is complete control) ([1]; 125 g ai/ha): 60; Plant response rating, Foxtail, Giant [7, 11]: 90; Foxtail, Giant plant response rating [7, 12]: 90; Plant response rating, Foxtail, Giant [7, 13]: 100; Plant response rating, Foxtail, Giant [7, 14]: 100; Plant response rating, Barnyardgrass (0 to 100 scale, 0 is no effect, 100 is complete control) ([8]; 125 g ai/ha): 0; Plant response rating, Sedge, Umbrella (0 to 100 scale, 0 is no effect, 100 is complete control) ([9]; 125 g ai/ha): 70; Plant response rating, Corn (corn (Zea mays); [11]): 20; Corn plant response rating (corn (Zea mays); [12]): 30; Plant response rating, Corn (corn (Zea mays); [13]): 10; Plant response rating, Corn (corn (Zea mays); [14]): 20; Plant response rating, Rice (0 to 100 scale, 0 is no effect, 100 is complete control) (rice (Oryza sativa); 125 g ai/ha): 30; Plant response rating, Crabgrass, Large [10, 11]: 90; Crabgrass, Large plant response rating [10, 12]: 90; Plant response rating, Crabgrass, Large [10, 13]: 100; Plant response rating, Crabgrass, Large [10, 14]: 100
2 | CCc1nn(-c2ccc(F)cc2F)nc1Oc1ccnc(C(F)F)c1 [Compound 181] | 90 | 90 | 0 | 10 | 90 | 100 | 60 | 90 | 0 | 20 | 0 | 0 | 0 | 30 | 0 | 20 | 30 | 70 | 0 | 0 | Plant response rating, Ducksalad (0 to 100 scale, 0 is no effect, 100 is complete control) ([1]; 125 g ai/ha): 0; Plant response rating, Foxtail, Giant [7, 11]: 30; Foxtail, Giant plant response rating [7, 12]: 80; Plant response rating, Foxtail, Giant [7, 13]: 10; Plant response rating, Foxtail, Giant [7, 14]: 80; Plant response rating, Barnyardgrass (0 to 100 scale, 0 is no effect, 100 is complete control) ([8]; 125 g ai/ha): 0; Plant response rating, Sedge, Umbrella (0 to 100 scale, 0 is no effect, 100 is complete control) ([9]; 125 g ai/ha): 0; Plant response rating, Corn (corn (Zea mays); [11]): 0; Corn plant response rating (corn (Zea mays); [12]): 10; Plant response rating, Corn (corn (Zea mays); [13]): 0; Plant response rating, Corn (corn (Zea mays); [14]): 0; Plant response rating, Rice (0 to 100 scale, 0 is no effect, 100 is complete control) (rice (Oryza sativa); 125 g ai/ha): 20; Plant response rating, Crabgrass, Large [10, 11]: 50; Crabgrass, Large plant response rating [10, 12]: 50; Plant response rating, Crabgrass, Large [10, 13]: 10; Plant response rating, Crabgrass, Large [10, 14]: 80
3 | CCCCc1nn(-c2ccc(C(F)(F)F)cc2)nc1Oc1ccnc(C(F)(F)F)c1 [Compound 184] | 30 | 100 | 0 | 10 | 100 | 100 | 90 | 100 | 10 | 20 | 0 | 0 | 10 | 30 | 0 | 50 | 40 | 90 | 0 | 30 | Plant response rating, Ducksalad (0 to 100 scale, 0 is no effect, 100 is complete control) ([1]; 250 g ai/ha): 0; Plant response rating, Foxtail, Giant [7, 11]: 30; Foxtail, Giant plant response rating [7, 12]: 80; Plant response rating, Foxtail, Giant [7, 13]: 70; Plant response rating, Foxtail, Giant [7, 14]: 90; Plant response rating, Barnyardgrass (0 to 100 scale, 0 is no effect, 100 is complete control) ([8]; 250 g ai/ha): 25; Plant response rating, Sedge, Umbrella (0 to 100 scale, 0 is no effect, 100 is complete control) ([9]; 250 g ai/ha): 60; Plant response rating, Corn (corn (Zea mays); [11]): 10; Corn plant response rating (corn (Zea mays); [12]): 20; Plant response rating, Corn (corn (Zea mays); [13]): 0; Plant response rating, Corn (corn (Zea mays); [14]): 0; Plant response rating, Rice (0 to 100 scale, 0 is no effect, 100 is complete control) (rice (Oryza sativa); 250 g ai/ha): 25; Plant response rating, Crabgrass, Large [10, 11]: 50; Crabgrass, Large plant response rating [10, 12]: 90; Plant response rating, Crabgrass, Large [10, 13]: 70; Plant response rating, Crabgrass, Large [10, 14]: 100
4 | CCOc1nn(-c2ccc(F)cc2F)nc1Cc1ccnc(C(F)(F)F)c1 [Compound 190] | 100 | 100 | 80 | 80 | 100 | 100 | 100 | 100 | 70 | 100 | 60 | 80 | 100 | 100 | 100 | 100 | 100 | 100 | 40 | 100 | Plant response rating, Ducksalad (0 to 100 scale, 0 is no effect, 100 is complete control) ([1]; 125 g ai/ha): 70; Plant response rating, Foxtail, Giant [7, 11]: 100; Foxtail, Giant plant response rating [7, 12]: 100; Plant response rating, Foxtail, Giant [7, 13]: 100; Plant response rating, Foxtail, Giant [7, 14]: 100; Plant response rating, Barnyardgrass (0 to 100 scale, 0 is no effect, 100 is complete control) ([8]; 125 g ai/ha): 70; Plant response rating, Sedge, Umbrella (0 to 100 scale, 0 is no effect, 100 is complete control) ([9]; 125 g ai/ha): 95; Plant response rating, Corn (corn (Zea mays); [11]): 60; Corn plant response rating (corn (Zea mays); [12]): 90; Plant response rating, Corn (corn (Zea mays); [13]): 30; Plant response rating, Corn (corn (Zea mays); [14]): 90; Plant response rating, Rice (0 to 100 scale, 0 is no effect, 100 is complete control) (rice (Oryza sativa); 125 g ai/ha): 50; Plant response rating, Crabgrass, Large [10, 11]: 100; Crabgrass, Large plant response rating [10, 12]: 100; Plant response rating, Crabgrass, Large [10, 13]: 100; Plant response rating, Crabgrass, Large [10, 14]: 100
5 | CCCOc1nn(-c2ccc(C(F)(F)F)cc2)nc1Cc1ccnc(C(F)(F)F)c1 [Compound 191] | 100 | 100 | 20 | 30 | 100 | 100 | 100 | 100 | 70 | 80 | 40 | 70 | 60 | 100 | 90 | 100 | 80 | 100 | 30 | 80 | Plant response rating, Ducksalad (0 to 100 scale, 0 is no effect, 100 is complete control) ([1]; 125 g ai/ha): 20; Plant response rating, Foxtail, Giant [7, 11]: 90; Foxtail, Giant plant response rating [7, 12]: 100; Plant response rating, Foxtail, Giant [7, 13]: 100; Plant response rating, Foxtail, Giant [7, 14]: 100; Plant response rating, Barnyardgrass (0 to 100 scale, 0 is no effect, 100 is complete control) ([8]; 125 g ai/ha): 50; Plant response rating, Sedge, Umbrella (0 to 100 scale, 0 is no effect, 100 is complete control) ([9]; 125 g ai/ha): 50; Plant response rating, Corn (corn (Zea mays); [11]): 30; Corn plant response rating (corn (Zea mays); [12]): 80; Plant response rating, Corn (corn (Zea mays); [13]): 20; Plant response rating, Corn (corn (Zea mays); [14]): 60; Plant response rating, Rice (0 to 100 scale, 0 is no effect, 100 is complete control) (rice (Oryza sativa); 125 g ai/ha): 50; Plant response rating, Crabgrass, Large [10, 11]: 90; Crabgrass, Large plant response rating [10, 12]: 100; Plant response rating, Crabgrass, Large [10, 13]: 100; Plant response rating, Crabgrass, Large [10, 14]: 100
